Reference: patent US12042492B2 (priority 2020, dated 2024)
Marks after values point to notes of the source that are not given here.

Experiments:
[1] = tested on: N2a cells; experiment: Cell viability (MTT assay) in N2a cells; type: cell-based, mouse; conditions: ligand treated N2a cells relative to untreated cells; P=0.038
Procedure: (§1) The N2a cells grown for 6 days in a serum-free medium (1:1 mixture of DMEM and OptiMEM, plus penicillin and streptomycin (Invitrogen, Carlsbad, CA, USA) until the cells developed neuronal processes. As shown in (FIG. 10), these cells were used for 4 groups—one control group and 3 treatment groups. 1) untreated N2a cells (the control group), 2) N2a cells treated with ligand 1 (N2a+ligand 1), 3) N2a cells transfected mAPP with the (lipofectamine) (20 μM final concentration for 6 hrs (mAPP), 4) N2a cells transfected with mAPP cDNA for 6 hrs, treated with ligand 1 (mAPP+ligand 1 treatment group), N2a cells treated with ligand 1 for 24 hrs and then treated with the mAPP cDNA for 6 hrs (ligand 1+mAPP treatment group). As shown in (FIG. 10), the inventors performed 4 independent cell cultures and treatments for all experiments (n=4).
Cell viability and apoptotic cell death MTT assay. Ligand 1 treated N2a cells, cell based apoptosis assay was performed using Cellometer Vision CBA Image Cytometry System (Nexcelom Bioscience LLC, Lawrence, MA) with two fluorophore Annexin V-FITC and Propidium Iodide (PI) staining solution, according to manufacturer's instructions. Briefly, cells were harvested using trypsin, then spin down at 300 g for three minutes and pellets were washed with 1×PBS, cells were counted using hematocytometer. […]

[2] = tested on: N2a cells; experiment: qRT-PCR mRNA expression in N2a cells treated with ligand 1; type: cell-based, mouse
Procedure: as §1
mRNA levels of mitochondrial dynamics and mitochondrial biogenesis and synaptic genes. Using the reagent TriZol (Invitrogen), the inventors isolated total RNA from 4 independent treatments of N2a cells (n=4) from control (untreated N2a cells) and experimental treatments (N2a cells treated with Ligand 1; N2a cells transfected with mAPP; N2a cells transfected with mAPP and then treated with Ligand 1. Using primer express Software (Applied Biosystems), the inventors designed the oligonucleotide primers for the housekeeping genes β-actin, GDPH; APP-related genes (APP, BACE1 and PSN1); mitochondrial structural genes; fission (Drp1 and Fis1); fusion genes (MFN1, MFN2, Opa1) (54), mitochondrial biogenesis genes (PGC1α, Nrf1, Nrf2, and Tfam) (Manczak et al., 2019), and synaptic proteins (SYN, PSD95 and MAP2). The primer sequences and amplicon sizes are listed in (Table 1). With SYBR-Green chemistry-based quantitative real-time RT-PCR, the inventors measured mRNA expression of the genes mentioned above as described by Manczak et al. 2019(54). Briefly, 2 μg of DNAse-treated total RNA was used as starting material, to which the inventors added 1 μl of oligo (dT), 1 μl of 10 mM dNTPs, 4 μl of 5× first strand buffer, 2 μl of 0.1 M DTT, and 1 μl RNAse outout. The reagents RNA, dT), and dNTPs were mixed first, then heated at 65° C. for 5 min, and finally chilled on ice until the remaining components were added. The samples were incubated at 42° C. for 2 min, and then 1 μl of Superscript II (40 U/μl) was added. The samples were then incubated at 42° C. for 50 min, at which time the reaction was inactivated by heating at 70° C. for 15 min.
Quantitative real-time PCR amplification reactions were performed in N2a cells in an ABI Prism 7900 sequence detection system (Applied Biosystems, Foster City, CA) in a 25-μl volume of total reaction mixture. The reaction mixture consisted of 1×PCR buffer containing SYBR-Green; 3 mM MgCl2; 100 nm of each primer; 200 nm of dATP, dGTP, and dCTP each; 400 nm of dUTP; 0.01 U/μl of AmpErase UNG; and 0.05 U/μl of AmpliTaq Gold. A 20 ng cDNA template was added to each reaction mixture.
The CT-values of β-actin was tested to determine the unregulated endogenous reference gene in N2a cells that were treated with Aβ and protective molecules, and in untreated N2a cells. In the latter case, the CT-value was similar in untreated and N2a cells treated with MTAs and Aβ. The CT-value is an important quantitative parameter in real-time PCR analysis as described in Gutala and Reddy (2004) (55). All RT-PCR reactions were carried out in triplicate, with no template control. The PCR conditions were: 50° C. for 2 min and 95° C. for 10 min, followed by 40 cycles of 95° C. for 15 sec and 60° C. for 1 min. The fluorescent spectra were recorded during the elongation phase of each PCR cycle. To distinguish specific amplicons from non-specific amplifications, a dissociation curve was generated. […]

[3] = N2a + Ligand1 relative to untreated N2a cells
[4] = N2a + Ligand1 relative to untreated N2a cells, negative = decrease
[5] = ligand 1 treated N2a cells relative to untreated cells, size of the decrease
[6] = ligand 1 treated N2a cells relative to untreated cells, size of the decrease, no statistical significance

## [(6As,8S,10aS,12aS)-10a, 12a-dimethyl-2-oxo-3,4,4a,4b,5,6,6a,7,8,9,10,10b,11,12-tetradecahydro-1H-naphtho[2,1-f]quinolin-8-yl] 4-[4-[bis(2-chloroethyl)amino]phenyl]butanoate [Ligand 1]
[1]
  Cell viability: significantly increased
[2]; [3]
  mRNA fold change Mfn1: 1.1 fold
  mRNA fold change Mfn2: 1.2 fold
  mRNA fold change Nrf1: 1.2 fold
  mRNA fold change Nrf2: 1.3 fold
  mRNA fold change OPA1: 1.4 fold
  mRNA fold change PSD95: 1.2 fold
  mRNA fold change Synaptophysin: 1.4 fold
  mRNA fold change TFAM: 1.2 fold
[2]; N2a + Ligand1 relative to untreated N2a cells, listed as Ligand1
  mRNA fold change PGC1a: 1.6* fold
[2]; N2a + Ligand1 relative to untreated N2a cells, listed as ligand 1
  mRNA fold change PGC1a: 1.6 fold
[2]; [4]
  mRNA fold change APP: −1.2 fold
  mRNA fold change BACE1: −1.8** fold
  mRNA fold change Drp1: −1.1 fold
  mRNA fold change Fis1: −1.1 fold
  mRNA fold change Presenilin1: −1.3 fold
[2]; [5]
  APP mRNA, fold decreased: 1.8 fold
  BACE1 mRNA, fold decreased: 1.2 fold
  PS1 mRNA, fold decreased: 1.3 fold
[2]; [6]
  Drp1 mRNA, fold reduced: 1.1 fold
  Fis1 mRNA, fold reduced: 1.1 fold
